In US6765003B1, “3-Arylsulfonyl-2 (substituted methyl) propanoic acid derivatives as matrix metalloproteinase inhibitors” (Pharmacia Italia, SpA, priority 1999, dated 2004):
Like-named read-outs stand apart in the source and are kept apart here.

Legend:
[1] = target: T1, Human gelatinase-A (MMP-2) (Homo sapiens, UniProt P08253); test: MMP inhibition, internal fluorescence quenching method (MCA peptide substrate); format: biochemical
T1 sequence (P08253 110-660): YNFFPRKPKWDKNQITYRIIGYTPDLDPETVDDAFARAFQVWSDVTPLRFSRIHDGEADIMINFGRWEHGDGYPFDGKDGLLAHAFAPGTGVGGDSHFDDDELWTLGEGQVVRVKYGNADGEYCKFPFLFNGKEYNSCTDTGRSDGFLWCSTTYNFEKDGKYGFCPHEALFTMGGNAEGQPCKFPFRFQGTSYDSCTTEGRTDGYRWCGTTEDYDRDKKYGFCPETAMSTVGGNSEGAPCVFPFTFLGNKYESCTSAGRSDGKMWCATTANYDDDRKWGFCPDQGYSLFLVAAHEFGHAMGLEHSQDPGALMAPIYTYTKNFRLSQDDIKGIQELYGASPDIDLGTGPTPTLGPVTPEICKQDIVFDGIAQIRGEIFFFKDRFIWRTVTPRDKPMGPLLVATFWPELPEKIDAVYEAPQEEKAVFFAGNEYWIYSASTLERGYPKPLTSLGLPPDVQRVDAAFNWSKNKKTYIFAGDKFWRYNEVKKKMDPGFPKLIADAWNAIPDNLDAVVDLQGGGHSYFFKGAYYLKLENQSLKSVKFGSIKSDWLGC
Procedure: (§1) The inhibitory activity of the compounds of the present invention was evaluated in vitro against one or more of the MMP enzymes (gelatinases, collagenases, stromelysins) using the internal fluorescence quenching method. The assay method is based on the hydrolysis of the MMP substrate, MCA-Pro-Leu-Gly-Leu-DPA-Ala—Arg-NH2 at 37° C. (see Knight, C. G. et al., FEBS Lett. 296:263-266, 1992). The enzymes cleave at the Gly-Leu bond removing the internally quenching DPA group. The release of the highly fluorescent peptide MCA-Pro-Leu was monitored with a LS50 Perkin Elmer fluorimeter equipped with a Peltier-thermostated cell holder using an excitation wavelength of 326 nm and an emission wavelenght of 398 nm. Slis were set at 14/14. Proper determination of steady-state rates of substrate cleavage required a preincubation at 37° C. of 15 minutes to allow for complete equilibration of the enzyme-inhibitor complex. […] Rates of substrate hydrolysis, expressed as fluorescence arbitrary units per minute, were calculated by least-square analysis of the steady-state linear progression curves. The steady-state rates were fitted to the Michaelis equation describing competitive inhibition; in particular, Ki,app were determined by fining the data to the tight-binding equation of Morrison (Biochem. Biophys. Acta, 185:269-286, 1969) by non-linear methods.
(§2) Human gelatinase-A (MMP-2) was obtained as penzyme (72 kDa) and was activated with 1 mM 4-aminophenylmercuric acetate for 30 min at 37° C. immediately prior to use. The inhibitor was diluted into the assay from a stock solution in 100% DMSO, and controls substituted an equal volume of DMSO so that the final DMSO concentration from inhibitor and substrate dilution in all assays was 1%. The concentration of MMP-2 was 19.2 picoM. For compounds of formula (I) where X is —OH, the assay buffer was 50 mM Tris/HCl pH 6.5 containing 150 mM NaCl, 10 mM CaCl2, 0.01 mM ZnCl2 and 0.05% Brij35 (Protocol A). Other conditions were as stated above.
The compounds of formula (I) where X is —NHOH were tested against MMP-2 and MMP-1 under the conditions stated above, but the assay solution was buffered at pH 7.4 (Protocol B).

patients = details: may be severe and dose-limiting; cited from earlier work
[2] = target: T2, Human fibroblast collagenase (MMP-1) (Homo sapiens, UniProt P03956); test: MMP inhibition, internal fluorescence quenching method (MCA peptide substrate); format: biochemical
T2 sequence (P03956 101-269): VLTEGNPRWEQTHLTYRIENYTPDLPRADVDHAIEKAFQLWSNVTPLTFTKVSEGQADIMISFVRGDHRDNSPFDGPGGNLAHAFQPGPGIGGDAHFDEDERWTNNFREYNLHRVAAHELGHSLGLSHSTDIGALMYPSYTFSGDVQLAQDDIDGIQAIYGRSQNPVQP
Procedure: as §1, §2
Assay conditions were the same as above, but enzyme concentration was 200 picoM.

rats = details: rat, in vivo
Source text: Questions remain concerning their specificity, bioavailability, and potential long-tens toxicity (see Hodgson, J., ‘Remodeling MMPIs’, Biotechnology 13:554-557, 1995), especially because they are primarily intended (in arthritis and cancer, at least) for prolonged therapy. […] Although the cause of this toxicity is not well understood at this moment, it is thought to arise from an impairment in the normal tissue remodeling that is governed by one or more of the MMPs, primarily fibroblast collagenase (MMP-1). […] Thus, there is a strong need for better MMPIs, especially as far as the properties referred to above (specificity, bioavailability, long-term toxicity) are concerned.

[3] = Protocol A: Tris/HCl pH 6.5, 37° C., MMP-2 19.2 picoM, substrate 3 μM, carboxylic acids, read-out: MMP-2 Ki

SMILES	Ki [1, 3] [nM]	melting point	other results
Nc1nnc(SCC(CS(=O)(=O)c2ccc(-c3ccc(Cl)cc3)cc2)C(=O)O)s1 (centres unmarked) [Example 23, 3-[(4′-chloro[1,1′-biphenyl]-4-yl)sulfonyl]-2-[[(5-amino-1,3,4-thiadiazol-2-yl)sulfanyl]methyl]propanoic acid]	25	184 to 186 °C	–
COc1ccc(S(=O)(=O)N(Cc2cccnc2)[C@@H](C(=O)NO)C(C)C)cc1 [CGS27023A]	–	–	musculoskeletal syndrome in patients (patients): cause a musculoskeletal syndrome characterized by joint pain and stiffness
O=C(NO)C(CN1C(=O)CNC1=O)CS(=O)(=O)c1ccc(-c2ccc(Cl)cc2)cc1 (centres unmarked) [Example 12, 3-[(4′-chloro[1,1′-biphenyl]-4-yl)sulfonyl]-N-hydroxy-2-[(2,5-dioxo-1-imidazolidinyl)methyl]propanamide]	–	150 to 156 °C	Ki ([1]; Protocol B: pH 7.4, 37° C., hydroxamic acids (X is —NHOH), read-out: MMP-2 Ki (picoM)): 0.069 nM; Ki ([2]; Protocol B: pH 7.4, 37° C., hydroxamic acids (X is —NHOH), read-out: MMP-1 Ki (picoM)): 17.1 nM
CNC(=O)[C@@H](NC(=O)[C@@H](CC(=O)NO)CC(C)C)C(C)(C)C [Ro31-9790]	–	–	joint toxicity (histology of stifle joints) (rats): elicited histological alteration of stifle joints
O=C(O)C(CSc1nccs1)CS(=O)(=O)c1ccc(-c2ccc(Cl)cc2)cc1 (centres unmarked) [Example 28, 3-[(4′-chloro[1,1′-biphenyl]-4-yl)sulfonyl]-2-[(1,3-thiazol-2-ylsulfanyl)methyl]propanoic acid]	6.6	152 to 154 °C	–
Cc1cc(C)nc(SCC(CS(=O)(=O)c2ccc(-c3ccc(Cl)cc3)cc2)C(=O)O)n1 (centres unmarked) [Example 27, 3-[(4′-chloro[1,1′-biphenyl]-4-yl)sulfonyl]-2-[[(4,6-dimethyl-2-pyrimidinyl)sulfanyl]methyl]propanoic acid]	22.8	170 to 172 °C	–
CN1C(=O)N(CC(CS(=O)(=O)c2ccc(-c3ccccc3)cc2)C(=O)O)C(=O)C1(C)C (centres unmarked) [Example 7]	42	> 200 °C (dec.)	–
CC1(C)SCCN(S(=O)(=O)c2ccc(Oc3ccncc3)cc2)[C@H]1C(=O)NO [AG3340]	–	–	musculoskeletal syndrome in patients (patients): cause a musculoskeletal syndrome characterized by joint pain and stiffness
CC1(C)NC(=O)N(CC(CS(=O)(=O)c2ccc(-c3ccc(Cl)cc3)cc2)C(=O)O)C1=O (centres unmarked) [Example 9, 3-[(4′-chloro[1,1′-biphenyl]-4-yl)sulfonyl]-2-[(4,4-dimethyl-2,5-dioxo-1-imidazolidinyl)methyl]propanoic acid]	3	242 to 245 °C	–
Cc1cc(SCC(CS(=O)(=O)c2ccc(-c3ccc(Cl)cc3)cc2)C(=O)O)nc(C)n1 (centres unmarked) [Example 26, 3-[(4′-chloro[1,1′-biphenyl]-4-yl)sulfonyl]-2-[[(2,6-dimethyl-4-pyrimidinyl)sulfanyl]methyl]propanoic acid]	26.8	170 to 172 °C	–
CNC(=O)[C@@H](NC(=O)[C@H](CC(C)C)[C@H](O)C(=O)NO)C(C)(C)C [Marimastat]	–	–	joint toxicity (histology of stifle joints) (rats): elicited histological alteration of stifle joints
O=C(O)C(CSc1ccccc1)CS(=O)(=O)c1ccc(-c2ccc(Cl)cc2)cc1 (racemic) [Example 1, 3-[(4′-chloro[1,1′-biphenyl]-4-yl)sulfonyl]-2-[(phenylsulfanyl)methyl]propanoic acid]	8.3	158 to 162 °C	–
O=C(O)C(CSc1ncccn1)CS(=O)(=O)c1ccc(-c2ccc(Cl)cc2)cc1 (centres unmarked) [Example 22, 3-[(4′-chloro[1,1′-biphenyl]-4-yl)sulfonyl]-2-[(2-pyrimidinylsulfanyl)methyl]-propanoic acid]	8	166 to 168 °C	Ki ([2]; Protocol A: pH 6.5, 37° C., enzyme 200 picoM, substrate 3 μM, carboxylic acids, read-out: MMP-1 Ki): 8030 nM
Cn1nnnc1SCC(CS(=O)(=O)c1ccc(-c2ccc(Cl)cc2)cc1)C(=O)O (centres unmarked) [Example 32, 3-[(4′-chloro[1,1′-biphenyl]-4-yl)sulfonyl]-2-[[(1-methyl-1H-tetrazol-5-yl)sulfanyl]methyl]propanoic acid]	26	98 to 100 °C	–
